One experiment has as its system 518A2. Description: Antiproliferative activity against human 518A2 cells assessed as reduction in cell viability incubated for 72 hrs by MTT assay. Type of experiment: functional, cell-based. The conditions noted are these: 518A2, 72 h. (Formazan colour is commonly taken as a measure of viable cells.)
Experiment [1] relates to MCF7. Description: Antitumor activity against human MCF7 cells xenografted in BALB/c nude mouse assessed as tumor growth inhibition at 25 mg/kg, ip administered once daily for 1 week relative to control. In kind it is functional. The conditions noted are these: MCF7, 168 h, time 1 weeks, read-out: TGI.
Experiment [2] deals with HCT-116. Description: Antitumor activity against human HCT-116 cells xenografted in BALB/c nude mouse assessed as tumor growth inhibition at 25 mg/kg, ip administered once daily for 1 week relative to control. Type of experiment: functional. The conditions noted are these: HCT-116, 168 h, time 1 weeks, read-out: TGI. A general note: Xenograft models place foreign cells or tissue in a host animal.

The next experiment has as its system A2780. In words: Antitumor activity against human A2780 cells xenografted in BALB/c nude mouse assessed as tumor growth inhibition at 25 mg/kg, ip administered once daily for 1 week relative to control. In kind it is functional. The conditions noted are these: A2780, 168 h, time 1 weeks, read-out: TGI.
A short description of experiment [3]: Inhibition of bovine brain tubulin polymerization measured after 20 mins by spectrophotometric analysis. More on the design: species or system Bos taurus.
Experiment [4] has as its target Tubulin. In words: Inhibition of tubulin polymerization (unknown origin). In kind it is protein-complex assay, Homo sapiens.
The test system of experiment [5] is MCF7. Description: Antiproliferative activity against human MCF7 cells assessed as reduction in cell viability incubated for 72 hrs by MTT assay. The conditions noted are these: MCF7, 72 h. In kind it is functional, cell-based.
Another experiment relates to HepG2. Description: Antiproliferative activity against human HepG2 cells assessed as reduction in cell viability incubated for 72 hrs by MTT assay. The conditions noted are these: HepG2, 72 h. In kind it is functional, cell-based.
For the next experiment, the system named is MGC-803. In words: Antiproliferative activity against human MGC-803 cells assessed as reduction in cell viability by MTT assay. In kind it is functional, cell-based.
The test system of a further experiment is KYSE-450. Description: Antiproliferative activity against human KYSE-450 cells assessed as reduction in cell viability by MTT assay. In kind it is functional, cell-based.
For experiment [6], the system named is HCT-116. Description: Antiproliferative activity against human HCT-116 cells assessed as reduction in cell viability by MTT assay. Type of experiment: functional, cell-based.
Experiment [7] has as its target T1, Histone deacetylase 1 (Homo sapiens, UniProt Q13547). In words: Inhibition of HDAC1 (unknown origin).
The species entered for experiment [8] is Homo sapiens. In words: Selectivity index, ratio of IC50 for inhibition of human recombinant HDAC1 to IC50 for inhibition of human recombinant HDAC6.
Experiment [9] deals with T2, Protein deacetylase HDAC6 (Homo sapiens, UniProt Q9UBN7).
T2 sequence (Q9UBN7 whole entry): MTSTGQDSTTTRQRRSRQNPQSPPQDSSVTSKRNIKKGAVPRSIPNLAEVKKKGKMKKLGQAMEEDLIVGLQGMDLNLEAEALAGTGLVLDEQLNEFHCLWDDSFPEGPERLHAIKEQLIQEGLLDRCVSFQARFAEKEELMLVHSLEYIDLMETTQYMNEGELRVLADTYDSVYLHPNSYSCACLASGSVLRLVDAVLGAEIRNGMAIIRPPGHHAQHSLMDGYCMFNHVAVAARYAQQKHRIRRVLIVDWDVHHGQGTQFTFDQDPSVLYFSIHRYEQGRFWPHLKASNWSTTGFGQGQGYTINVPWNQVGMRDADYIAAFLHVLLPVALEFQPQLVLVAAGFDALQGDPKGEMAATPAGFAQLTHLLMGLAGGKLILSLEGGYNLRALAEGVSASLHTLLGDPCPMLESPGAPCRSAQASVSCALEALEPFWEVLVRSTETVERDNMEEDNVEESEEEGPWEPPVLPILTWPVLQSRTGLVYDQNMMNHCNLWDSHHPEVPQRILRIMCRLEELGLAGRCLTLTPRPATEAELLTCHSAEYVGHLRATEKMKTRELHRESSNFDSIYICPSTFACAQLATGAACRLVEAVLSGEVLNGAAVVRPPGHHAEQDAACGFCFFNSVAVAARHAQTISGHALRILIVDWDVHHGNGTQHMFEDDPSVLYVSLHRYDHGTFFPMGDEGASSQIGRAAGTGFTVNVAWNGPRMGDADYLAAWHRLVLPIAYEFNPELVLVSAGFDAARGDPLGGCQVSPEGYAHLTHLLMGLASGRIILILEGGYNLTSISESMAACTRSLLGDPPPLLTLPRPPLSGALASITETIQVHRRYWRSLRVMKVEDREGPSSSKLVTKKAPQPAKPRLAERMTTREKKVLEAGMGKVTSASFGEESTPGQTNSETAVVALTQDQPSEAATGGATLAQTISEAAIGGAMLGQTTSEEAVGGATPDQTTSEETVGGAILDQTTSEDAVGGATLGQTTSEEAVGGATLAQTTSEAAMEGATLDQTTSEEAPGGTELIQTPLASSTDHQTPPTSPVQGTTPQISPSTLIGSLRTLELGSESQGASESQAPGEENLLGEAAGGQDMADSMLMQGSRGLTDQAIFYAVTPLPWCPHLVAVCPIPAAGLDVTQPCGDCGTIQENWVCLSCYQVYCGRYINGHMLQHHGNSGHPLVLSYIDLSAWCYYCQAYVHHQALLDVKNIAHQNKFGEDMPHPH
Description: Inhibition of human recombinant HDAC6 using Boc-Lys(Ac)-AMC as substrate preincubated for 15 mins followed by substrate addition and measured after 60 mins by fluorescence based microplate reader analysis.

The species named for experiment [10] is Homo sapiens. In words: Selectivity index, ratio of IC50 for inhibition of human recombinant HDAC2 to IC50 for inhibition of human recombinant HDAC6.
For experiment [11], the target named is T3, Histone deacetylase 2 (Homo sapiens, UniProt Q92769). Description: Inhibition of human recombinant HDAC2 extracted from baculovirus infected Sf9 insect cells using Ac-Leu-Gly-Lys(Ac)-AMC as substrate preincubated for 30 mins followed by substrate addition measured after 1 hr by fluorescence based analysis.
Experiment [12] deals with T1, Histone deacetylase 1. Description: Inhibition of human recombinant HDAC1 using Boc-Lys(Ac)-AMC or Boc-Lys(Tfa)-AMC as substrate incubated for 1 hr by fluorescence based analysis.
Experiment [13] concerns the target T3, Histone deacetylase 2. In words: Inhibition of human recombinant HDAC2 extracted from baculovirus infected Insect cells using Ac-Lys-Tyr-Lys (acetyl)-AMC as substrate incubated for 24 hrs by fluorescence analysis. More on the design: species or system Insect cell.
The next experiment concerns the target Tubulin (Homo sapiens) (UniProt P68371+Q9H4B7+P0DPH7+P68366+Q13509+Q71U36+P04350+Q3ZCM7+P07437+P68363+Q9BQE3+Q6PEY2+Q13885+Q9BVA1+Q9BUF5). In words: Inhibition of tubulin polymerization (unknown origin) at 10 uM relative to control. In kind it is protein-complex assay.
Experiment [14] addresses T2, Protein deacetylase HDAC6. In words: Inhibition of HDAC6 (unknown origin).
Experiment [15] has as its system PC-3. In words: Antitumor activity against human PC-3 cells xenografted in nude mouse assessed as inhibition of tumor growth at 100 mg/kg, ip administered once daily for 7 days relative to control. The conditions noted are these: PC-3, 168 h, time 7 day, read-out: TGI. In kind it is functional.
In a further experiment the test system is HL-60. Description: Antitumor activity against human HL-60 cells xenografted in nude mouse assessed as inhibition of tumor growth at 100 mg/kg, ip administered once daily for 7 days relative to control. In kind it is functional. The conditions noted are these: HL-60, 168 h, time 7 day, read-out: TGI.
Experiment [16] deals with A549. In words: Antiproliferative activity against human A549 cells assessed as reduction in cell viability incubated for 48 hrs by MTT assay. Type of experiment: functional, cell-based. The conditions noted are these: A549, 48 h.
The subject of experiment [17] is PC-3. Description: Antiproliferative activity against human PC-3 cells assessed as reduction in cell viability incubated for 48 hrs by MTT assay. The conditions noted are these: PC-3, 48 h. In kind it is functional, cell-based.
Experiment [18] relates to HCT-116. In words: Antiproliferative activity against human HCT-116 cells assessed as reduction in cell viability incubated for 48 hrs by MTT assay. Type of experiment: functional, cell-based. The conditions noted are these: HCT-116, 48 h.
In experiment [19] the target is T2, Protein deacetylase HDAC6. In words: Inhibition of FLAG/His-tagged human recombinant HDAC6 extracted from baculovirus infected Sf9 cells […] by fluorescence based analysis.
A further experiment relates to UO-31. In words: Antiproliferative activity against human UO-31 cells assessed as reduction in cell viability by MTT assay. Type of experiment: functional, cell-based.
The target of experiment [20] is Tubulin. Description: Inhibition of tubulin polymerization (unknown origin) by fluorescence based assay. In kind it is protein-complex assay, Homo sapiens.
A further experiment concerns T47D. In words: Antiproliferative activity against human T47D cells assessed as reduction in cell viability by MTT assay. In kind it is functional, cell-based.
Experiment [21] addresses T1, Histone deacetylase 1. In words: Inhibition of human recombinant FLAG/His-tagged HDAC1 using fluorogenic substrate by fluorescence microplate reader assay.
Experiment [22] deals with A549. Description: Cytotoxicity against human A549 cells assessed as reduction in cell growth measured for 72 hrs by MTT assay. In kind it is functional, cell-based. The conditions noted are these: A549, 72 h.

T1 sequence (Q13547 whole entry): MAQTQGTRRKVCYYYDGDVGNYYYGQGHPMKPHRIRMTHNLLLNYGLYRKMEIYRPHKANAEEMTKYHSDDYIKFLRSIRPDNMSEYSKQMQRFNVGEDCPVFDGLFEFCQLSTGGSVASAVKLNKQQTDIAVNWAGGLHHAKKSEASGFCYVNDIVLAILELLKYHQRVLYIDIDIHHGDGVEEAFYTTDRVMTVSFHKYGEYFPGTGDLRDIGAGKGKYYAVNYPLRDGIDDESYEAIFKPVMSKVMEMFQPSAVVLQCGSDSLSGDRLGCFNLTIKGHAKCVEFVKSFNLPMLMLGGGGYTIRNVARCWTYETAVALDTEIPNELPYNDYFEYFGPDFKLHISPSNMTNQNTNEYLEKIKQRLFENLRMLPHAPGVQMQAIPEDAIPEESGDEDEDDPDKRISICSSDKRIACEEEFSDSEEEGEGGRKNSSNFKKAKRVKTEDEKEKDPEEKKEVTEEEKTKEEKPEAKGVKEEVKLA
T3 sequence (Q92769 whole entry): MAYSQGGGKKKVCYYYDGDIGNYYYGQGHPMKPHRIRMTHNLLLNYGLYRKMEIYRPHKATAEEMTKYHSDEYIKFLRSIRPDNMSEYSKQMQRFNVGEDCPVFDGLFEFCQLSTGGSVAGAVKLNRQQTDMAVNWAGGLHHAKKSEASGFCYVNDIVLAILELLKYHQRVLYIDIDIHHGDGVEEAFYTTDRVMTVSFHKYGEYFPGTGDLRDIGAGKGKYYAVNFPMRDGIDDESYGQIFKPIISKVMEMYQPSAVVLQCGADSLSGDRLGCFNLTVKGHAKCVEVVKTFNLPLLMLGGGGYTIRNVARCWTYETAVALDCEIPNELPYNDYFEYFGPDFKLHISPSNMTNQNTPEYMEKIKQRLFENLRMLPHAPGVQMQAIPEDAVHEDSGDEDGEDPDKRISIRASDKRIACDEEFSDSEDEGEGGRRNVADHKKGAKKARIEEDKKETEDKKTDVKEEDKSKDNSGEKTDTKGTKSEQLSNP

As usually defined, the IC50 is the point on the concentration scale where inhibition reaches its midpoint. `COc1ccc(-c2ocnc2-c2cc(Br)c(OC)c(OC)c2)cc1OCCCC(=O)NO`: the IC50 in the experiment on 518A2 worked out at 710 nM.

Take `COc1ccc(N(C)c2nc(C)nc3ccccc23)cc1OCCCC(=O)NO`: the figures for the inhibition in vivo at 25 mg/kg in the experiment on MCF7 [1], in the experiment on HCT-116 [2] and with A2780 were 50.5%, 60.4% and 77.4%, respectively.

`COc1cccc(C(=O)c2oc3cc(OC)c(C#CC(=O)NO)cc3c2C)c1` displayed an IC50 in [3] of 420 nM.

As to `COc1cc(/C=C/C(=O)c2ccc(NC(=O)c3ccccc3CN3C(=O)c4ccccc4C3=O)cc2)cc(OC)c1OC`, the results for the IC50 on Tubulin [4], in the experiment on MCF7 [5] and in the experiment on HepG2 were 2320 nM, 1880 nM and 1620 nM, respectively.

As for `COc1ccc(CN(C(=O)CC2CCC(C(=O)Nc3ccccc3N)CC2)c2cc(OC)c(OC)c(OC)c2)cc1O` (stereo not given), the IC50 was determined as 3640 nM at Tubulin [4]; 39 nM with MGC-803; 254 nM in the experiment with KYSE-450; 172 nM in the experiment with HCT-116 [6]; 525 nM against Histone deacetylase 1 [7].

With `COc1ccc2c(C(=O)c3cc(OC)c(OC)c(OO)c3)cn(Cc3ccc(C(=O)NO)cc3)c2c1`, the Ratio IC50 came out at 8.89 in the experiment listed under Homo sapiens [8] and 21.8 in the experiment listed under Homo sapiens [10]. The IC50 came to 65 nM in [9], 1410 nM on Histone deacetylase 2 [11] and 573 nM at Histone deacetylase 1 [12].

As to `COc1cc([C@@H]2c3cc4c(cc3C[C@H]3COC(=O)[C@@H]32)OCO4)cc(OC)c1OC(=O)CC(=O)Nc1ccc(C(=O)Nc2ccccc2N)cc1`, at Histone deacetylase 2 [13], the IC50 was determined as 1730 nM.

By inhibition is commonly meant the change of the read-out against control, counted positive when it falls. At Tubulin (Homo sapiens), `COc1ccc(-c2cccc(-c3cc(OC)c(OC)c(OC)c3)n2)cc1O` came in with an inhibition of 32%.

As for `COc1ccc2c(C(=O)c3cc(OC)c(OC)c(OO)c3)cn(S(=O)(=O)c3cccc(/C=C/CC(=O)NO)c3)c2c1`, the IC50 in [14] stood at 276 nM; in the experiment with A549 [16], 73 nM; with PC-3 [17], 33 nM; in the experiment with HCT-116 [18], 44 nM. Moreover, the inhibition in vivo at 100 mg/kg is 31.1% in the experiment on PC-3 [15] and 40.9% with HL-60.

With `COc1ccc2c(C)c(C(=O)c3cc(OC)c(OC)c(OC)c3)oc2c1`, at Tubulin [4], 620 nM corresponded to half-maximal inhibition (IC50).

`COc1ccc(-c2cccc(-c3cc(OC)c(OC)c(OC)c3)n2)cc1CCC(=O)NO` yielded an IC50 against Tubulin [4] of 117 nM.

At Tubulin [4], `COc1ccc2c(C(=O)c3cc(OC)c(OC)c(OO)c3)c[nH]c2c1` displayed an IC50 of 2800 nM.

Turning to `CNC(=O)CCCCOc1nc(-c2ccc(OC)cc2)cc(-c2cc(OC)c(OC)c(OC)c2)c1C#N`, the IC50 worked out at 84 nM in [19]; 3520 nM in the experiment with UO-31; 3520 nM at Tubulin [20]; 5500 nM in the experiment on T47D; 73.2 nM on Histone deacetylase 1 [21].

Take `COc1cc([C@@H]2c3cc4c(cc3C[C@H]3COC(=O)[C@@H]32)OCO4)cc(OC)c1OC(=O)CC(=O)NCc1ccc(C(=O)Nc2ccccc2N)cc1`: the IC50 with A549 [22] was 40 nM.

The values are drawn from ChEMBL document CHEMBL6153023, “Tubulin/HDAC dual-target inhibitors: Insights from design strategies, SARs, and therapeutic potential” (Eur J Med Chem, 2025).
